Results on 50 compounds are retold here after patent publication US20140213538A1, “LYSOPHOSPHATIDIC ACID RECEPTOR ANTAGONISTS” (InterMune, Inc., priority 2013, published 2014).

One experiment deals with LPA1 (Homo sapiens, UniProt Q92633). The experiment in a line: LPA1 Migration Assay (Oris). The class given is cell-based. The arrangement: host or cells: primary fibroblasts (lung, dermal), HFL-1, 3T3 and CHO cells expressing LPA1R. The note with it: read-out: Cell Migration EC50. The source says:
LPA1 Migration Assay Migration of primary fibroblasts (including lung, dermal), HFL-1, 3T3 and CHO cells expressing LPA1R were monitored using the Oris™ assay (Platypus Technologies, Madison, Wis.). These cells were dye (Cell Tracker Green™) loaded and serum starved for 12-24 hrs. In response to chemoattractants such as LPA and serum, the cells migrated inward in to the exclusion (detection) zone. After fixing, fluorescent cells in the detection zone were counted using a high content reader. The ability of LPA1 antagonists to inhibit cell migration is quantified by plotting cell number vs. compound concentration and curve fitting the resulting dose-response curve to a 4 parameter logistic function.

The target of a further experiment is T1, LPA/S1P GPCR of interest (Homo sapiens, UniProt Q92633).
T1 construct: host or cells: CHO
T1 sequence (Q92633 whole entry): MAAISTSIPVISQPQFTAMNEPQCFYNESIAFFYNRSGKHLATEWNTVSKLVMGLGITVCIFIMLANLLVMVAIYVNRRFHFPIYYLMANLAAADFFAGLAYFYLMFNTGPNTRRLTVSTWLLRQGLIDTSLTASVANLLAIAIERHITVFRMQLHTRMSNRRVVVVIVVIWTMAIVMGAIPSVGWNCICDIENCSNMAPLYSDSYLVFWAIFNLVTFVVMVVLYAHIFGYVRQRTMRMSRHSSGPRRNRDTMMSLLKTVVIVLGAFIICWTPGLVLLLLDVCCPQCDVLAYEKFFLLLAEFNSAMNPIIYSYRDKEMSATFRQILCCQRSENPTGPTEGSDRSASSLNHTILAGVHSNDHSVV
The experiment in a line: Beta-Arrestin based assay (PathHunter). It counts as cell-based. Put shortly: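 EA Parental CHO cells (DiscoverX) were transfected with FuGENE (Roche) using CMV promoter-driven DNA constructs encoding the LPA/S1P GPCR of interest fused to a ProLink tag. Beta-arrestin recruitment in agonist mode was assessed 24-48 hrs later with PathHunter kits. Tests ran in quadruplicate in white 384 well plates, and end point luminescence was fit to a 4 parameter logistic function.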

Each structure is given as a SMILES string. Bounds are passed on as bounds.

LPA1, sequence (Q92633 whole entry): as above

As for `Cc1noc(-c2ccc(-c3ccc(Oc4cccc(F)c4C(=O)O)cc3)cc2)c1NC(=O)O[C@H](C)c1ccccc1` [IT454], the EC50 at LPA1 was 50 to 500 nM; at LPA/S1P GPCR of interest, < 50 nM.

Turning to `Cc1noc(C#Cc2ccc(NC3(C(=O)O)CC3)cc2)c1NC(=O)O[C@H](C)c1ccccc1` [IT006], the EC50 on LPA1 and at LPA/S1P GPCR of interest was 50 to 500 nM throughout.

With `C[C@@H](OC(=O)Nc1c(-c2cc3sc(-c4ccc(CC(=O)O)cc4N)cc3s2)nnn1C)c1ccccc1` [IT181], the EC50 at LPA1 and on LPA/S1P GPCR of interest was > 500 nM each time.

`C[C@@H](OC(=O)Nc1c(-c2cc3sc(-c4ccc(CC(=O)O)s4)cc3s2)cnn1C)c1ccccc1` [IT147]: the EC50 is > 500 nM on LPA1 and 50 to 500 nM on LPA/S1P GPCR of interest.

For `Cc1noc(-c2ccc(-c3ccc4c(c3)CC(C)(C(=O)O)O4)cc2)c1NC(=O)O[C@H](C)c1ccccc1` (stereo partly drawn) [IT498], the EC50 on LPA1 was 50 to 500 nM; at LPA/S1P GPCR of interest it was < 50 nM.

As to `Cc1noc(-c2ccc(-c3ccc(Oc4ccccc4C(=O)O)nn3)cc2)c1NC(=O)O[C@H](C)c1ccccc1` [IT259], the EC50 at LPA1 was > 500 nM; on LPA/S1P GPCR of interest, 50 to 500 nM.

As to `Cc1noc(-c2ccc(-c3ccc(S(=O)(=O)N4CCCC4)cc3)cc2)c1NC(=O)O[C@H](C)c1ccccc1` [IT153], the EC50 on LPA1 and on LPA/S1P GPCR of interest was > 500 nM throughout.

Turning to `C[C@@H](OC(=O)Nc1c(-c2ccc(-c3ccc(C(C(=O)O)C4CCC4)cc3)cc2)cnn1C)c1ccccc1` (stereo partly drawn) [IT151], the values for the EC50 on LPA1 and on LPA/S1P GPCR of interest were 50 to 500 nM and < 50 nM, respectively.

For `C[C@@H](OC(=O)Nc1c(-c2ccc(-c3ccc(OC4(C(=O)O)CC4)cc3)cc2)oc2ccccc12)c1ccccc1` [IT512], the EC50 on LPA1 is > 500 nM; at LPA/S1P GPCR of interest, 50 to 500 nM.

`C[C@@H](OC(=O)Nc1c(-c2cc3sc(-c4ccc(CC(=O)O)cc4N)cc3s2)cnn1C)c1ccccc1` [IT180]: the EC50 on LPA1 and on LPA/S1P GPCR of interest was > 500 nM each time.

Take `C[C@@H](OC(=O)Nc1c(-c2cc3sc(-c4ccc(CC(=O)O)cc4F)cc3s2)nnn1C)c1ccccc1` [IT159]: the results for the EC50 at LPA1 and on LPA/S1P GPCR of interest were > 500 nM and 50 to 500 nM, respectively.

Turning to `C[C@@H](OC(=O)Nc1c(-c2ccc(-c3ccc(OC4(C(=O)O)CC4)cc3)cc2)cnn1C)c1ccccc1` [IT511], the results for the EC50 on LPA1 and on LPA/S1P GPCR of interest were 50 to 500 nM and < 50 nM, respectively.

For `C[C@@H](OC(=O)Nc1c(-c2cc3sc(-c4cc(F)c(CC(=O)O)c(F)c4)cc3s2)nnn1C)c1ccccc1` [IT158], the EC50 on LPA1 and at LPA/S1P GPCR of interest was 50 to 500 nM in each case.

As to `COc1cc(CC(=O)O)ccc1-c1cc2sc(-c3cnn(C)c3NC(=O)O[C@H](C)c3ccccc3)cc2s1` [IT162], the EC50 at LPA1 and on LPA/S1P GPCR of interest was > 500 nM in each case.

With `C[C@@H](OC(=O)Nc1c(-c2cc3sc(-c4cc(Cl)c(C5(C(=O)O)CC5)cc4F)cc3s2)cnn1C)c1ccccc1` [IT284], the EC50 at LPA1 and at LPA/S1P GPCR of interest was 50 to 500 nM each time.

Consider `C[C@@H](OC(=O)Nc1c(C#Cc2cc(F)c(OC3(C(=O)O)CC3)c(F)c2)cnn1C)c1ccccc1` [IT311], for which the EC50 on LPA1 and at LPA/S1P GPCR of interest was 50 to 500 nM each time.

As to `Cc1noc(-c2ccc(-c3ccc(Oc4ccccc4C(=O)O)c(F)c3)cc2)c1NC(=O)O[C@H](C)c1ccccc1` [IT355], the EC50 on LPA1 and on LPA/S1P GPCR of interest was < 50 nM in each case.

Regarding `Cc1nsc(-c2cc3sc(-c4ccc(CC(=O)O)s4)cc3s2)c1NC(=O)O[C@H](C)c1ccccc1` [IT148], the EC50 on LPA1 and on LPA/S1P GPCR of interest was > 500 nM throughout.

In the case of `Cc1noc(-c2ccc(C#Cc3ccccc3C(=O)O)cc2)c1NC(=O)O[C@H](C)c1ccccc1` [IT154], the EC50 at LPA1 and at LPA/S1P GPCR of interest was > 500 nM throughout.

Consider `Cc1noc(-c2ccc(-c3ccc(S(C)(=O)=O)nc3)cc2)c1NC(=O)O[C@H](C)c1ccccc1` [IT139], for which the EC50 at LPA1 and at LPA/S1P GPCR of interest was 50 to 500 nM each time.

With `Cc1nsc(-c2cc(Cl)c(-c3cc4sc(C5(C(=O)O)CC5)cc4s3)cc2F)c1NC(=O)O[C@H](C)c1ccccc1` [IT281], the EC50 is 50 to 500 nM on LPA1 and < 50 nM at LPA/S1P GPCR of interest.

For `C[C@@H](OC(=O)Nc1c(-c2cc3sc(-c4ccc(CC(=O)O)cc4Cl)cc3s2)cnn1C)c1ccccc1` [IT140], the EC50 on LPA1 is > 500 nM; on LPA/S1P GPCR of interest, 50 to 500 nM.

With `Cc1cc(C2(C(=O)O)CC2)ccc1-c1cc2sc(-c3cnn(C)c3NC(=O)O[C@H](C)c3ccccc3)cc2s1` [IT260], the EC50 is 50 to 500 nM on LPA1 and < 50 nM at LPA/S1P GPCR of interest.

For `C[C@@H](OC(=O)Nc1c(-c2cc3sc(-c4cc(F)c(CC(=O)O)c(F)c4)cc3s2)cnn1C)c1ccccc1` [IT157], the EC50 is > 500 nM on LPA1 and 50 to 500 nM on LPA/S1P GPCR of interest.

As to `C[C@@H](OC(=O)Nc1c(-c2cc3sc(-c4ccc(C5(C(=O)O)CC5)cc4Cl)cc3s2)nnn1C)c1ccccc1` [IT390], the EC50 on LPA1 was 50 to 500 nM; at LPA/S1P GPCR of interest it was < 50 nM.

Regarding `C[C@@H](OC(=O)Nc1c(-c2cc3sc(-c4ccc(CC(=O)O)cc4)cc3s2)cnn1C)c1ccccc1` [IT132], the results for the EC50 on LPA1 and at LPA/S1P GPCR of interest were > 500 nM and 50 to 500 nM, respectively.

Turning to `C[C@@H](OC(=O)Nc1c(-c2cc3sc(-c4cc(F)c(C5(C(=O)O)CC5)cc4F)cc3s2)nnn1C)c1ccccc1` [IT348], the EC50 at LPA1 was 50 to 500 nM; at LPA/S1P GPCR of interest it was < 50 nM.

`C[C@@H](OC(=O)Nc1c(-c2cc3sc(-c4ccc5scc(CC(=O)O)c5c4)cc3s2)nnn1C)c1ccccc1` [IT336]: the results for the EC50 on LPA1 and on LPA/S1P GPCR of interest were 50 to 500 nM and < 50 nM, respectively.

In the case of `Cc1noc(-c2ccc(-c3ccc(Oc4cnccc4C(=O)O)cc3)cc2)c1NC(=O)O[C@H](C)c1ccccc1` [IT257], the results for the EC50 at LPA1 and on LPA/S1P GPCR of interest were 50 to 500 nM and < 50 nM, respectively.

For `C[C@@H](OC(=O)Nc1c(-c2cc3sc(-c4ccc(C5(C(=O)O)CC5)cc4Cl)cc3s2)cnn1C)c1ccccc1` [IT389], the EC50 was 50 to 500 nM on LPA1 and < 50 nM at LPA/S1P GPCR of interest.

Turning to `C[C@@H](OC(=O)Nc1c(-c2cc3sc(-c4ccc(CC(=O)O)cc4)cc3s2)nnn1C)c1ccccc1` [IT160], the EC50 on LPA1 and on LPA/S1P GPCR of interest was 50 to 500 nM throughout.

On to `Cc1noc(-c2ccc(-c3ccc(Oc4nccnc4C(=O)O)cc3)cc2)c1NC(=O)O[C@H](C)c1ccccc1` [IT232], for which the results for the EC50 at LPA1 and on LPA/S1P GPCR of interest were 50 to 500 nM and < 50 nM, respectively.

`C[C@@H](OC(=O)Nc1c(-c2cc3sc(-c4ccc(C5(C(=O)O)CC5)nc4)cc3s2)nnn1C)c1ccccc1` [IT270]: the EC50 at LPA1 is 50 to 500 nM; at LPA/S1P GPCR of interest it was < 50 nM.

As to `COC(=O)c1ccccc1Oc1ccc(-c2ccc(-c3nnn(C)c3NC(=O)O[C@H](C)c3ccccc3)cc2)cc1` [IT478], the EC50 on LPA1 and at LPA/S1P GPCR of interest was 50 to 500 nM each time.

As to `C[C@@H](OC(=O)Nc1c(-c2ccc(-c3cc(F)c(OC4(C(=O)O)CC4)c(F)c3)cc2)cnn1C)c1ccccc1` [IT314], the EC50 was > 500 nM at LPA1 and < 50 nM on LPA/S1P GPCR of interest.

For the compound `C[C@@H](OC(=O)Nc1c(-c2cc3sc(-c4ccc(C5(C(=O)O)CC5)c(F)c4F)cc3s2)nnn1C)c1ccccc1` [IT365], the figures for the EC50 at LPA1 and at LPA/S1P GPCR of interest were 50 to 500 nM and < 50 nM, respectively.

`Cc1noc(-c2ccc(-c3ccc(Oc4ncsc4C(=O)O)cc3)cc2)c1NC(=O)O[C@H](C)c1ccccc1` [IT417]: the EC50 on LPA1 and on LPA/S1P GPCR of interest was 50 to 500 nM each time.

`C[C@@H](OC(=O)Nc1c(-c2ccc(-c3ccc(C4(C(=O)O)CC4)cc3)cc2)nc2cnccn12)c1ccccc1` [IT032]: the EC50 on LPA1 was in the range of 50 to 500 nM.

On to `Cc1noc(C#Cc2ccc3cc(C4(CC(=O)O)CC4)ccc3c2)c1NC(=O)O[C@H](C)c1ccccc1` [IT003], for which, on LPA1, the EC50 was 50 to 500 nM.

`C[C@@H](OC(=O)Nc1c(-c2ccc(-c3ccc(C4(C(=O)O)CC4)cc3)cc2)nc2ncccn12)c1ccccc1` [IT043]: the EC50 on LPA1 was 50 to 500 nM.

For `COCCOC(=O)C1(c2cc3sc(C#Cc4cnn(C)c4NC(=O)O[C@H](C)c4ccccc4)cc3s2)CC1` [IT084], the EC50 at LPA1 was 50 to 500 nM.

As for `CC(C)OC(=O)C1(c2cc3sc(C#Cc4cnn(C)c4NC(=O)O[C@H](C)c4ccccc4)cc3s2)CC1` [IT086], the EC50 at LPA1 is > 500 nM.

`C[C@@H](OC(=O)Nc1c(-c2cc(F)c(-c3cc4sc(C5(C(=O)O)CC5)cc4s3)cc2F)nnn1C)c1ccccc1` [IT071]: at LPA1, the EC50 fell in the range of 50 to 500 nM.

On to `C[C@@H](OC(=O)Nc1c(C2CCC(c3ccc(C4(C(=O)O)CC4)cc3)CC2)cnn1C)c1ccccc1` (stereo partly drawn) [IT066], for which, at LPA1, the EC50 was > 500 nM.

For the compound `C[C@@H](OC(=O)Nc1c(-c2ccc(-c3ccc(C4(C(=O)O)CC4)cc3)cc2)sc2ncccc12)c1ccccc1` [IT031], the EC50 on LPA1 was in the range of 50 to 500 nM.

Turning to `C[C@@H](OC(=O)Nc1c(-c2cc(F)c(-c3ccc(C4(C(=O)O)CCOCC4)cc3)cc2F)cnn1C)c1ccccc1` [IT044], at LPA1, the EC50 lay in the range of 50 to 500 nM.

Regarding `C[C@@H](OC(=O)Nc1c(C#Cc2ccc3cc(C4(C(=O)O)CC4)ccc3c2)cnn1C1CC1)c1ccccc1` [IT015], the EC50 at LPA1 lay in the range of 50 to 500 nM.

For the compound `C[C@@H](OC(=O)Nc1c(C#Cc2cc3sc(C4(C(=O)OCC(=O)N(C)C)CC4)cc3s2)cnn1C)c1ccccc1` [IT090], the EC50 on LPA1 lay in the range of 50 to 500 nM.

Take `Cc1nsc(-c2cc(F)c(-c3ccc(C4(C(=O)O)CCOCC4)cc3)cc2F)c1NC(=O)O[C@H](C)c1ccccc1` [IT042]: at LPA1, the EC50 was in the range of 50 to 500 nM.

Regarding `COc1ccccc1OC(=O)C1(c2cc3sc(C#Cc4cnn(C)c4NC(=O)O[C@H](C)c4ccccc4)cc3s2)CC1` [IT088], the EC50 at LPA1 is 50 to 500 nM.
